A melting point compilation (Tetko et al.; mined from patent text by program, amines drawn as free bases though some values may be those of a salt)

Compound `O=Cc1cccc(OCc2ccco2)c1` has a melting point of 144 to 146 °C.
For `COC(=O)c1cc(Cl)c(OC)c(Cl)c1N`, the melting point was 72 to 73 °C.
`COC(=O)c1cc(-c2cc(C)[nH]c2C)nn1C` gave a melting point of 63 to 65 °C.
In the case of `O=S1(=O)CCN2C=CC=C(c3ccc(Oc4ccc(O)cc4)cc3)C2=N1`, the melting point is reported as 289 to 290 °C.
Compound `CC1CCCCC1N(Cc1ccc(C(=O)NC(C)(C)C(=O)O)cc1)S(=O)(=O)c1ccc(C(F)(F)F)nc1` (centres undefined) has a melting point of 131 to 132 °C.
In the case of `O=C(O)CCSc1nnc(S)s1`, the melting point is reported as 105 to 108 °C.
`COc1ccc(C(=O)Nc2ccc(C(C)=O)cc2)cc1C12CC3CC(CC(C3)C1)C2` showed a melting point of 200 to 201 °C.
`Clc1ccc(OC2CN(C(c3ccccc3)c3ccccc3)C2)cc1` gave a melting point of 113 to 114 °C.
With `CCNc1cc(Oc2ccc(NC(=O)NC3Cc4ccc(Br)cc4C3)cc2)ncn1` (centres undefined) the melting point was 247 °C.
For `COC(=O)c1ccc(/C=C(\C)c2ccc3c(c2)SC(C)(C)S3)cc1`, the melting point was 86 to 87 °C.
In the case of `S=c1[nH]c(Nc2ccc(Cl)cc2)nc2ccccc12`, the melting point is reported as 264 to 268 °C.
In the case of `CN1CCC(=O)N(c2ccccc2)c2cc(Cl)ccc21`, the melting point is reported as 143 to 144 °C.
For `ClCc1c2ccccc2c(Cc2ccccc2)c2ccccc12`, the melting point was 146 to 147 °C.
Compound `CCCCCCCCCCCCNC(=O)c1cc(-c2ccc(OC)cc2)cc(-c2cccc(Cl)c2OCC(=O)O)c1` has a melting point of 114 to 117 °C.
In the case of `CCCCOc1cccc(C(=O)C=Cc2ccc(OC)cc2OC)c1`, the melting point is reported as 80.4 to 81.3 °C.
Work on `CCOC(=O)c1nc(-c2cccc([N+](=O)[O-])c2)[nH]c1-c1ccc(OC)cc1` yielded a melting point of 208 to 210 °C.
With `CCCN1CCC=C(c2cccc3[nH]cc(Br)c23)C1` the melting point was 156 °C.
With `CN(C)S(=O)(=O)n1cc(C(=O)c2c(Cl)cc(Cl)cc2Cl)nc1C#N` the melting point was 142 to 150 °C.
Compound `O=S(=O)(c1ccc(Cl)cc1)n1ccc2cc(F)ccc21` has a melting point of 108 to 109 °C.
For `COc1cc(I)cc2c(O)c(C(=O)NCc3ccc(Cl)cc3)cnc12`, the melting point was 241 to 243 °C.
Work on `COc1cc(C(=O)NS(=O)(=O)c2ccccc2C)ccc1Cc1c(Cl)n(C)c2ccc(CC(C)NC(=O)N(C)C)cc12` (centres undefined) yielded a melting point of 120 to 130 °C.
Work on `COC(=O)c1ccc(SC(Cn2ccnc2)c2ccc(Cl)cc2Cl)cc1` (centres undefined) yielded a melting point of 121 to 124 °C.
`O=C(N1CCN(Cc2ccccc2)CC1)N1CC(Oc2ccc(Br)cc2)C1` gave a melting point of 133 to 135 °C.
Work on `CCOC(=O)c1c(Cl)c(CC)c(C)[nH]c1=O` yielded a melting point of 167 °C.
Compound `Oc1cc(Br)c(-c2c3ccccc3c(Br)c3sc4ccccc4c23)cc1O` has a melting point of 138 to 140 °C.
In the case of `C[C@@H]1C(=O)C[C@H]2C[C@@H]1OO[C@@]2(C)/C=C\c1ccc(C#N)cc1`, the melting point is reported as 125 °C.
`CC(C)(C)COc1ccc(C2=CC=CN3CCS(=O)(=O)N=C23)cc1` gave a melting point of 258 to 259 °C.
Compound `NS(=O)(=O)c1ccco1` has a melting point of 120 to 122 °C.
`CCCCc1ncc(/C=C(/CO)Cc2cccs2)n1Cc1ccccc1Cl` gave a melting point of 114 to 115 °C.
`CC(=O)n1cc(Cl)c(-c2cc(Cl)cc(Cl)c2)n1` gave a melting point of 125 °C.
Work on `COc1ccccc1[C@@]1(O)[C@H](O)CC(c2ccccc2)(c2ccccc2)[C@@H]2CN(C(=O)Cc3cccc4ccccc34)C[C@@H]21` (racemic) yielded a melting point of 188 to 190 °C.
`O=C(O)C=CC(=O)Oc1ccccc1` gave a melting point of 127 to 128 °C.
With `COCCOCOc1c(C(C)(C)C)cc(C2=NC(=S)N=N2)cc1C(C)(C)C` the melting point was 187 °C.
`O=C(Nc1cccc(S(=O)(=O)NCc2ccccn2)c1)c1cnn2c(C(F)(F)F)cc(-c3ccc(C(F)(F)F)cc3)nc12` gave a melting point of 229 °C.
`CC1(C)CC(O)CC(C)(C)N1OC1CCCCC1` gave a melting point of 74 to 78 °C.
With `COC(=O)c1cc2ccc(Sc3ccc(C)cc3)nc2s1` the melting point was 127 to 130 °C.
With `CS(=O)(=O)c1ccc(-c2nc(C(F)(F)F)nc(N=[N+]=[N-])c2-c2ccc(Cl)cc2)cc1` the melting point was 317 to 320 °C.
Work on `CCN(c1ccc(C(=O)O)nn1)C(C)c1cc(Br)ccc1OCc1ccccc1` (centres undefined) yielded a melting point of 129 °C.
`Cc1cc(C)nc(-n2nc(S(=O)(=O)Nc3c(Cl)cccc3Cl)nc2N)n1` showed a melting point of 306 to 312 °C.
